# Values of other authors in US20170368150A1, “METHODS OF TREATING PULMONARY SARCOIDOSIS” (GOTHAM BIOPHARMACEUTICALS, INC., priority 2014, published 2017).
# How the values were obtained:
# [1] = tested on: persons with pulmonary sarcoidosis; details: clinical trials
# sarcoidosis patients = details: human, in vivo
# [2] = tested on: people with uveal sarcoidosis; details: in vivo
Substance,efficacy in pulmonary sarcoidosis [1],other results
Infliximab,some success,–
Adalimumab,–,fraction of sarcoidosis patients with beneficial response (sarcoidosis patients): about half
golimumab,failed to show any benefit,–
Etanercept,–,efficacy in uveal sarcoidosis [2]: failed to demonstrate any significant efficacy
